What is called IC50 is the concentration that gives 50% inhibition.

The structures appear in SMILES notation. Counter-ions that a name gives are not always drawn.

The values below come from patent US10905687B2, “Substituted piperazines as ROR-gamma modulators” (ESCALIER BIOSCIENCES B.V., priority 2016, dated 2021).

Test [1] concerns the target RORγt (Homo sapiens (Human), UniProt P51449). Nature of the test: Gal4 ligand binding assay (RORγt Gal fusion assay). In kind it is cell-based. The settings on record: RORγt inverse agonists in RORγt Gal fusion assay. Here is the method:
Human RORγ ligand binding assay was performed in 96-well format. The N-terminal DNA binding domains (DBD) of the native RORγ and RORγt receptors have been substituted with that of the yeast GAL4-DBD and RORγ is expressed constitutively in the cell line. Both agonist and inverse agonist activity can be detected. 10 mM compound stocks were diluted serially 1:3 with DMSO and further diluted with provided media to generate 10 titration points from 60 μM to 3 nM. These treatment conditions were added to the plates as 2× media in 100 μL volume. Each plate includes a positive control with 10 titration points as well as 6 negative control wells with vehicle only. Reporter cells were rapidly thawed and added to the plates in 100 μL volume. The plates were incubated for 24 hrs in a 37° C. humidified 5% CO2 incubator. Media was removed before the addition of room temperature Detection Substrate. After 5 minute incubation, the luminescence was quantified on a luminescence plate reader.

Test [2] has as its system IMQ-induced psoriasis. As to conditions: topical pre-treatment daily for 5 days, 4 hours before IMQ; Compound A at 0.3, 1, 3%.
Method: Compounds of Formula (I), (Ia), or (Ib) were tested in the imiquimod (IMQ) induced psoriasis model in mice to determine their in vivo efficacy as topical agents. Female Balb/c mice of age 8-10 weeks were allowed to acclimatize for at least seven days prior to experiment initiation. During this period, the mice were observed daily for clinical signs. Animals were randomly assigned to studies group on Day zero (DO) before anaesthetization and back hair was completely removed by using a depilatory cream. One group of animals served as a naïve control (untreated). […] The severity of psoriasis was monitored and graded daily using a modified human scoring system, the Psoriasis Area and Severity Index (PASI), which consists of measures for ear and skin erythema, scaling and thickness. At the end of the study period, 24 hours after the final dosing, all animals were humanely sacrificed, and blind histopathological scoring was performed by pathologist on H&E stained tissue sections of the ear and back.

Sequence of RORγt (P51449 269-508): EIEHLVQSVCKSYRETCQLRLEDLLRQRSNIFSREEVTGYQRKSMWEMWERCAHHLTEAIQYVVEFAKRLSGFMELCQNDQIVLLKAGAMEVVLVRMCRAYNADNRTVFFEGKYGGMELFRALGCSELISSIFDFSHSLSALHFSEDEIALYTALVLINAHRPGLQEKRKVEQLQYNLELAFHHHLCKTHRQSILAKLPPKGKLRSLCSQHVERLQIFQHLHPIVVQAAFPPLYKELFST

Regarding `Cc1cc(CN2CCN(Cc3ccncc3)[C@@H](CC(=O)O)C2)ccc1-c1ccc(C(O)(C(F)(F)F)C(F)(F)F)cc1` [Compound 50, (S)-2-(4-((4′-(1,1,1,3,3,3-hexafluoro-2-hydroxypropan-2-yl)-2-methyl-[1,1′-biphenyl]-4-yl)methyl)-1-(pyridin-4-ylmethyl)piperazin-2-yl)acetic acid], the IC50 in test [1] was in the range of 1 to 10 µM.
Take `NCCOC(=O)CC1CN(Cc2ccc(-c3ccc(C(O)(C(F)(F)F)C(F)(F)F)cc3)cc2)CCN1Cc1ccncc1` (centres unmarked) [Compound 33, 2-aminoethyl 2-(4-((4′-(1,1,1,3,3,3-hexafluoro-2-hydroxypropan-2-yl)-[1,1′-biphenyl]-4-yl)methyl)-1-(pyridin-4-ylmethyl)piperazin-2-yl)acetate hydrochloride]: the IC50 in test [1] is 1 to 10 µM.
As to `C[C@H]1C[C@H]2[C@@H]3CCC4=CC(=O)C=C[C@]4(C)[C@@]3(F)[C@@H](O)C[C@]2(C)[C@@]1(O)C(=O)CCl` [clobetasol], in test [2], the “ear and back skin thickness” value is “significantly decreased”; the histopathology scoring result was “significantly decreased”; the psoriasis score result was “significantly decreased”.
Consider `O=C(O)C1CN(Cc2ccncc2)CCN1Cc1ccc(-c2ccc(C(O)(C(F)(F)F)C(F)(F)F)cc2)cc1` (centres unmarked) [Compound 12, 1-((4′-(1,1,1,3,3,3-hexafluoro-2-hydroxypropan-2-yl)-[1,1′-biphenyl]-4-yl)methyl)-4-(pyridin-4-ylmethyl)piperazine-2-carboxylic acid], for which the IC50 in test [1] is 1 to 10 µM.
Take `O=C(O)CC1CN(Cc2ccncc2)CCN1Cc1ccc(-c2ccc(C(O)(C(F)(F)F)C(F)(F)F)cc2)cc1` (centres unmarked) [Compound 13, 2-(1-((4′-(1,1,1,3,3,3-hexafluoro-2-hydroxypropan-2-yl)-[1,1′-biphenyl]-4-yl)methyl)-4-(pyridin-4-ylmethyl)piperazin-2-yl)acetic acid]: the IC50 in test [1] is 1 to 10 µM.
For `CC(C)NC(=O)C1CN(Cc2ccc(-c3ccc(C(O)(C(F)(F)F)C(F)(F)F)cc3)cc2)CCN1Cc1ccncc1` (centres unmarked) [Compound 28, 4-((4′-(1,1,1,3,3,3-hexafluoro-2-hydroxypropan-2-yl)-[1,1′-biphenyl]-4-yl)methyl)-N-isopropyl-1-(pyridin-4-ylmethyl)piperazine-2-car oxamide], the IC50 in test [1] was in the range of 1 to 10 µM.
